Data taken from US9278947B2, “Serotonin reuptake inhibitors as drugs having peripheral-system-restricted activity” (priority 2006, dated 2016).
Like-named read-outs stand apart in the source and are kept apart here. Marks after values point to notes of the source that are not given here.

Columns and labels:
[1] = reported in reference [1]; cited from earlier work
[2] = tested on: mice; assay: Collagen-epinephrine induced acute pulmonary thromboembolism in mice; type: in vivo; details: for death or paralysis after collagen-epinephrine injection versus control group: chronic treatment: aspirin 70 mg/kg, citalopram 10 mg/kg, NMC 10 mg/kg; for Number of mice who died: died or paralyzed after collagen-epinephrine into tail vein; for % death: died or paralyzed; for Mean % death ± S.E.M: mean of 3 experiments
Procedure: An experimental model of acute pulmonary thromboembolism was induced in mice by injecting a mixture of collagen (0.5 mg/kg) and epinephrine (0.5 mg/kg). […] The injection was followed by a massive activation of circulating platelets and the widespread formation of platelet thrombi in the microcirculation of the lungs leading to disseminated pulmonary microembolism and paralysis of the animal.

[3] = tested on: mice; assay: Tail bleeding time in chronically treated mice; type: in vivo; details: for Mean (n = 4) of mean bleeding time: mean over experiments (different doses)
Procedure: The anti-thrombotic effects of a drug can be evaluated in mice through a bleeding time experiment. Mice were treated by the tested drugs for two weeks, then anesthetized and placed on a warming pad before a segment of their tail was amputated. The tail was immersed in 0.9% isotonic saline at 37° C., and the time required for the stream of blood to stop was defined as the bleeding time. Different cuts and drug doses were tested. Control mice were administered either DDW (p.o) or saline (i.p). In some experiments (Nos. 5 and 6), half of the mice were administered DDW and half saline.

[4] = tested on: [^3H]dopamine uptake into rat brain synaptosomes; assay: [^3H]dopamine uptake by rat brain synaptosomes; type: biochemical; details: for inhibition of [^3H]dopamine uptake: at 45 nM
Procedure: (§1) [^3H]dopamine and [^3H]noradrenaline uptake assays were carried out in synaptosomes from rat brain cortex. After a 10 minutes pre-incubation period at 37° C., [^3H]dopamine or [^3H]noradrenaline were added to the tubes containing synaptosomes and tested drugs. The reactions were stopped after four minutes by rapid cooling on ice. Specific uptake was defined as the difference between total uptake at 37° C. (triplicate samples) and the uptake measured at 0° C. (duplicate samples). Three separate experiments were performed.

[5] = tested on: [^3H]noradrenaline uptake into rat brain synaptosomes; assay: [^3H]noradrenaline uptake by rat brain synaptosomes; type: biochemical; details: for inhibition of [^3H]noradrenaline uptake: at 8.5 nM
Procedure: as §1

[6] = tested on: ICR mice
[7] = Experiment No. 1, 70 mg/kg for two weeks
[8] = Experiment No. 2, 70 mg/kg for two weeks
[9] = Experiment No. 3, 70 mg/kg for two weeks
[10] = Experiment No. 1, 10 mg/kg for two weeks
[11] = Experiment No. 2, 10 mg/kg for two weeks
[12] = Experiment No. 3, 10 mg/kg for two weeks
[13] = 10 mg/kg for two weeks (control 72 ± 2)
[14] = 3 mm tail amputation, Experiment No. 3, CJ57/black, 2 mg/kg p.o., two weeks
[15] = 3 mm tail amputation, Experiment No. 5, ICR, 10 mg/kg i.p., two weeks

Structure (SMILES) | reduction of MI risk [1] [%] | death or paralysis after collagen-epinephrine injection versus control group [2] | Mean (n = 4) of mean bleeding time ([3]; 3 mm tail amputation) [s] | inhibition of [^3H]dopamine uptake [4] | Number of mice who died [2, 10] | Number of mice who died [2, 11] | Number of mice who died [2, 12] | % death [2, 10] [%] | % death [2, 11] [%] | % death [2, 12] [%] | Mean % death ± S.E.M [2, 13] | inhibition of [^3H]noradrenaline uptake [5] | Mean bleeding time [3, 14] [s] | Mean bleeding time [3, 15] [s] | other results
CC(=O)Oc1ccccc1C(=O)O [Aspirin] | 20 | significantly less prone to die or to be paralyzed | 288 |  |  |  |  |  |  |  |  |  |  |  | Number of mice who died [2, 7]: 5/10; Number of mice who died [2, 8]: 5/12; Number of mice who died [2, 9]: 3/11; % death [2, 7]: 50%; % death [2, 8]: 42%; % death [2, 9]: 27%; Mean % death ± S.E.M ([2]; 70 mg/kg for two weeks (control 72 ± 2)): 40^a ± 7^ %; Mean bleeding time ([3]; 3 mm tail amputation, Experiment No. 2, CJ57/black, 40 mg/kg p.o., two weeks): 389 s; Mean bleeding time ([3]; 3 mm tail amputation, Experiment No. 3, CJ57/black, 40 mg/kg p.o., two weeks): 230 s; Mean bleeding time ([3]; 3 mm tail amputation, Experiment No. 4, CJ57/black, 70 mg/kg p.o., two weeks): 394 s; Mean bleeding time ([3]; 3 mm tail amputation, Experiment No. 5, ICR, 70 mg/kg p.o., two weeks): 145 s; Mean bleeding time ([3]; 4 mm tail amputation, Experiment No. 6, ICR, 40 mg/kg p.o.): 221 s; Mean bleeding time ([3]; amputation where tail diameter is 2 mm, Experiment No. 1, CJ57/black, 40 mg/kg p.o.): 233 s
CN(C)CCCC1(c2ccc(F)cc2)OCc2cc(C#N)ccc21 (stereo not shown) [Citalopram, 1-(3-Dimethylamino-propyl)-1-(4-fluoro-phenyl)-1,3-dihydro-isobenzofuran-5-carbonitrile] |  | did not cause a significant improvement | 171 | did not inhibit | 7/9 | 8/13 | 7/10 | 78 | 61 | 70 | 70 ± 5% | did not have any effect | 179 | 66 | Mice behavior following injections, day 1 ([6]; 30 mg/day i.p., ICR mice, observed 1 hour): normal; Mice behavior following injections, day 3 ([6]; 100 mg/day i.p., ICR mice, observed 1 hour): looks weak
C[N+](C)(C)CCCC1(c2ccc(F)cc2)OCc2cc(C#N)ccc21 (stereo not shown) [NMC, N-methyl-citalopram] |  | significant decrease in death or paralysis | 191 | less than 10% | 6/8 | 4/13 | 6/14 | 75 | 31 | 43 | 50^b ± 10% | less than 20% | 150 | 124 | dose at which not lethal to mice ([6]; i.p., mice): less than 50 mg/kg; Mice behavior following injections, day 1 ([6]; mouse, in vivo, ip): normal; Mice behavior following injections, day 2 ([6]; mouse, in vivo, ip): normal; Mice behavior following injections, day 3 ([6]; mouse, in vivo, ip): normal; doses that can be toxic ([6]; mouse, in vivo, ip): above 50 mg/kg
COC(=O)[C@H](c1ccccc1Cl)N1CCc2sccc2C1 [clopidogrel] | 10 |  |  |  |  |  |  |  |  |  |  |  |  |  | 
OC1(c2ccc(Cl)cc2)c2ccccc2C2=NCCN21 (stereo not shown) [mazindol] |  |  |  |  |  |  |  |  |  |  |  |  |  |  | IC50 ([4]; rat brain synaptosomes, read-out: concentration inhibiting [^3H]dopamine uptake by 50%): 0.045 µM; IC50 ([5]; rat brain synaptosomes, read-out: concentration inhibiting [^3H]noradrenaline uptake by 50%): 0.0085 µM
